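Growth conditions: 96-well plates. Treatment: test compound, 48 hours, 5 concentrations. Analysis: linear interpolation between bracketing concentrations; unreached endpoints set to highest concentration. The concentration for 50% growth inhibition is given as GI50.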 Calls of active or inactive are those of the source. Rule as the data show it: active = GI50 up to about 1.1 µM and inactive = higher.
What was measured:
Experiment in all cases: NCI-60 cell line screen, 48 h
786-0 = test system: 786-0
A549 = test system: A549
EKVX = test system: EKVX
HCC 2998 = test system: HCC 2998
HOP-92 = test system: HOP-92
HT-29 = test system: HT-29
LOX IMVI = test system: LOX IMVI
Malme-3M = test system: Malme-3M
NCI-H226 = test system: NCI-H226
NCI-H23 = test system: NCI-H23
NCI-H522 = test system: NCI-H522
NCI/ADR-RES = test system: NCI/ADR-RES
PC-3 = test system: PC-3
SF-268 = test system: SF-268
SK-OV-3 = test system: SK-OV-3
SN12C = test system: SN12C
T47D = test system: T47D
TK-10 = test system: TK-10
U-251 = test system: U-251
UO-31 = test system: UO-31

Measured: GI50

O=C(CC(c1ccccc1)c1c(O)c2ccccc2oc1=O)c1ccccc1 (stereo not given)
inactive: 786-0 > 100 µM | A549 54.6 µM | EKVX 72.1 µM | HCC 2998 93.3 µM | HOP-92 > 44.3 µM | HT-29 > 94.8 µM | LOX IMVI > 67.8 µM | Malme-3M > 84.9 µM | NCI-H226 71.9 µM | NCI-H23 53.3 µM | NCI-H522 47 µM | NCI/ADR-RES 54.2 µM | PC-3 > 93.3 µM | SF-268 > 100 µM | SK-OV-3 67.9 µM | SN12C > 87.9 µM | T47D 58.1 µM | TK-10 > 100 µM | U-251 > 100 µM | UO-31 98.4 µM

CC(=O)/C(=N\N=C(N)N)c1ccccc1
inactive: 786-0 > 100 µM | A549 > 100 µM | EKVX 68.1 µM | HCC 2998 28.1 µM | HOP-92 > 100 µM | HT-29 > 100 µM | LOX IMVI > 100 µM | Malme-3M > 100 µM | NCI-H226 > 100 µM | NCI-H23 > 100 µM | NCI-H522 59.8 µM | NCI/ADR-RES > 100 µM | PC-3 > 100 µM | SF-268 > 100 µM | SK-OV-3 > 100 µM | SN12C > 100 µM | T47D 73.1 µM | TK-10 > 100 µM | U-251 > 100 µM | UO-31 > 100 µM

O=C1Nc2ccccc2SC1=C(C(=O)c1ccccc1)C(=O)c1ccccc1
inactive: 786-0 43.7 µM | A549 36.6 µM | EKVX 34.8 µM | HCC 2998 22.2 µM | HOP-92 38.1 µM | HT-29 32.4 µM | LOX IMVI 31.3 µM | Malme-3M > 85.7 µM | NCI-H226 45.8 µM | NCI-H23 29.7 µM | NCI-H522 20.4 µM | NCI/ADR-RES 40.1 µM | PC-3 26.3 µM | SF-268 32.1 µM | SK-OV-3 16 µM | SN12C 24 µM | T47D 53 µM | TK-10 63.4 µM | U-251 33.2 µM | UO-31 53.3 µM

COc1ccc(-n2c(=O)n(C)c(=O)n2-c2c(C)c(C)c(C)c(C)c2C)cc1
inactive: 786-0 > 100 µM | A549 > 100 µM | EKVX > 100 µM | HCC 2998 > 100 µM | HOP-92 > 100 µM | HT-29 > 100 µM | LOX IMVI > 100 µM | Malme-3M > 100 µM | NCI-H226 > 100 µM | NCI-H23 > 100 µM | NCI-H522 > 100 µM | NCI/ADR-RES > 100 µM | PC-3 > 100 µM | SF-268 > 100 µM | SK-OV-3 > 100 µM | SN12C > 100 µM | T47D > 100 µM | TK-10 > 100 µM | U-251 > 100 µM | UO-31 > 100 µM

From ChEMBL document CHEMBL1201862, “PubChem BioAssay data set” (2004)
